Measured values: ChEMBL document CHEMBL5550198, “Impact of atropisomerism on a non-steroidal glucocorticoid receptor agonist” (RSC Med Chem, 2024)

Legend:
[1] = Retention time of the compound by HPLC analysis; format: physicochemical
Glucocorticoid receptor = target: T1, Glucocorticoid receptor (Homo sapiens, UniProt P04150); assay: Agonist activity at glucocorticoid receptor (unknown origin) incubated for 24 hrs by cell based microplate analysis
T1 sequence (P04150 whole entry): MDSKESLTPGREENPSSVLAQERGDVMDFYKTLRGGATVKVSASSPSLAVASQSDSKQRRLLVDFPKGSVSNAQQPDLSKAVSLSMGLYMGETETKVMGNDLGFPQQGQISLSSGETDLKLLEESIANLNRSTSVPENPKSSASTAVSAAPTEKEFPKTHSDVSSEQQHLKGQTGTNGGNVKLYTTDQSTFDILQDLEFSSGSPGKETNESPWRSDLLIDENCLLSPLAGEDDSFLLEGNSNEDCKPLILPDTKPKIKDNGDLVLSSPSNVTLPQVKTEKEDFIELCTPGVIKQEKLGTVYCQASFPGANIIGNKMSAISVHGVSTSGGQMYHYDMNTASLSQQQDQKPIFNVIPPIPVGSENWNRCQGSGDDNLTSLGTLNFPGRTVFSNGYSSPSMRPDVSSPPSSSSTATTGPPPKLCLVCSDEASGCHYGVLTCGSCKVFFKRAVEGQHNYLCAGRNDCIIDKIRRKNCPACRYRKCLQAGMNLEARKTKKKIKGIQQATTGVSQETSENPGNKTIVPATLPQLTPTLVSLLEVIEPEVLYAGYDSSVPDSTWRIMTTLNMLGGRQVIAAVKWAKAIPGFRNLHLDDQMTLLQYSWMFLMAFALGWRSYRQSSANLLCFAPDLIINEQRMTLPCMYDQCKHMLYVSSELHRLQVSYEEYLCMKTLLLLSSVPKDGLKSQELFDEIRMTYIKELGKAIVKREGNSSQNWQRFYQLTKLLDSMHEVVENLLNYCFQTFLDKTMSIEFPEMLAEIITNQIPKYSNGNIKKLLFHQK

| Compound | Retention_time [1] | EC50 (Glucocorticoid receptor) |
| --- | --- | --- |
| CCc1cccc(C)c1C(=O)N(CC)C[C@@](O)(CNC(=O)c1cnn(-c2ccc(F)cc2)c1N)C(F)(F)F (stereo in doubt; 13a) | 2.394 min | – |
| CCN(C[C@@](O)(CNC(=O)c1cnn(-c2ccc(F)cc2)c1N)C(F)(F)F)C(=O)c1c(F)cccc1F | 2.228 min | 5 nM |
| CCN(C[C@@](O)(CNC(=O)c1cnn(-c2ccc(F)cc2)c1N)C(F)(F)F)C(=O)c1c(C)cccc1C | 2.349 min | – |
| CCN(C[C@@](O)(CNC(=O)c1cnn(-c2ccc(F)cc2)c1N)C(F)(F)F)C(=O)c1ccccc1Cl | 2.238 min | – |
| CCN(C[C@@](O)(CNC(=O)c1cnn(-c2ccc(F)cc2)c1N)C(F)(F)F)C(=O)c1c(C)cccc1Cl (stereo in doubt; 10b) | 2.36 min | 4 nM |
| CCc1cccc(CC)c1C(=O)N(CC)C[C@@](O)(CNC(=O)c1cnn(-c2ccc(F)cc2)c1N)C(F)(F)F | 2.544 min | 122 nM |
| CCN(C[C@@](O)(CNC(=O)c1cnn(-c2ccc(F)cc2)c1N)C(F)(F)F)C(=O)c1ccccc1 | 2.163 min | 78 nM |
| CCN(C[C@](O)(CNC(=O)c1cnn(-c2ccc(F)cc2)c1N)C(F)(F)F)C(=O)c1c(Cl)cccc1Cl | 3.06 min | – |
| CCN(C[C@@](O)(CNC(=O)c1cnn(-c2ccc(F)cc2)c1N)C(F)(F)F)C(=O)c1c(C)cccc1Cl (stereo in doubt; 10a) | 2.314 min | 2 nM |
| CCN(C[C@@](O)(CNC(=O)c1cnn(-c2ccc(F)cc2)c1N)C(F)(F)F)C(=O)c1ccccc1F | 2.249 min | 26 nM |
| CCN(C[C@@](O)(CNC(=O)c1cnn(-c2ccc(F)cc2)c1N)C(F)(F)F)C(=O)c1c(F)cccc1Cl | 2.979 min | 2 nM |
| CCN(C[C@@](O)(CNC(=O)c1cnn(-c2ccc(F)cc2)c1N)C(F)(F)F)C(=O)c1c(Cl)cccc1Cl | 2.337 min | 2 nM |

Other lines, results leading:

| Retention_time [1] | EC50 (Glucocorticoid receptor) | Compound |
| --- | --- | --- |
| 2.417 min | – | CCc1cccc(C)c1C(=O)N(CC)C[C@@](O)(CNC(=O)c1cnn(-c2ccc(F)cc2)c1N)C(F)(F)F (stereo in doubt; 13b) |
| 2.396 min | 0.5 nM | CCc1cccc(Cl)c1C(=O)N(CC)C[C@@](O)(CNC(=O)c1cnn(-c2ccc(F)cc2)c1N)C(F)(F)F (stereo in doubt; 14b) |
| 2.279 min | – | CCN(C[C@@](O)(CNC(=O)c1cnn(-c2ccc(F)cc2)c1N)C(F)(F)F)C(=O)c1c(C)cccc1F |
| 2.353 min | 4 nM | CCc1ccccc1C(=O)N(CC)C[C@@](O)(CNC(=O)c1cnn(-c2ccc(F)cc2)c1N)C(F)(F)F |
| 2.39 min | 9 nM | CCc1cccc(Cl)c1C(=O)N(CC)C[C@@](O)(CNC(=O)c1cnn(-c2ccc(F)cc2)c1N)C(F)(F)F (stereo in doubt; 14a) |
| 2.179 min | – | CCN(C[C@@](O)(CNC(=O)c1cnn(-c2ccc(F)cc2)c1N)C(F)(F)F)C(=O)c1ccccc1C |
